Measured values as given in paper PMC10065276, “Enhanced therapeutic window for antimicrobial Pept-ins by investigating their structure-activity relationship” (PLOS ONE, 2023).
Residues, ends and D or L forms follow the SMILES beside them.

Tested on: E. coli BL21
Conditions: BL21, 17 h
Outline: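 EUCAST broth microdilution in Mueller-Hinton medium; end-exponential culture diluted to 0.005 McF (~1.5x10^6 CFU/mL) before 1:1 mixing with two-fold peptide dilutions (0.75 to 100 μg/mL), triplicates.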

| SMILES | BL21 MIC [µg/mL] |
| --- | --- |
| CC[C@H](C)[C@H](NC(=O)CNC(=O)[C@H](CC(C)C)NC(=O)[C@@H]1CCCN1C(=O)[C@H](CCCNC(=N)N)NC(=O)[C@H](CC(C)C)NC(=O)[C@H](C)NC(=O)[C@@H](NC(=O)[C@H](C)NC(=O)[C@@H](NC(=O)CNC(=O)[C@H](CC(C)C)NC(=O)[C@@H](N)CCCNC(=N)N)[C@@H](C)CC)C(C)C)C(=O)N[C@@H](C)C(=O)N[C@H](C(=O)N[C@@H](C)C(=O)N[C@@H](CC(C)C)C(=O)N[C@@H](CCCNC(=N)N)C(=O)O)C(C)C [Peptide P33_3R_2] (H-RLGIAVALRPLGIAVALR-OH) | 25.00 |
| CC[C@H](C)[C@H](NC(=O)CNC(=O)[C@H](CC(C)C)NC(=O)[C@H](C)NC(=O)[C@@H]1CCCN1C(=O)[C@H](CCCNC(=N)N)NC(=O)[C@H](C)NC(=O)[C@H](CC(C)C)NC(=O)[C@H](C)NC(=O)[C@@H](NC(=O)[C@H](C)NC(=O)[C@@H](NC(=O)CNC(=O)[C@H](CC(C)C)NC(=O)[C@@H](N)CCCNC(=N)N)[C@@H](C)CC)C(C)C)C(=O)N[C@@H](C)C(=O)N[C@H](C(=O)N[C@@H](C)C(=O)N[C@@H](CC(C)C)C(=O)N[C@@H](C)C(=O)N[C@@H](CCCNC(=N)N)C(=O)O)C(C)C [Peptide P33_3R_3] (H-RLGIAVALARPALGIAVALAR-OH) | >100 |
| CC[C@H](C)[C@H](NC(=O)CNC(=O)[C@H](CC(C)C)NC(=O)[C@H](C)NC(=O)[C@@H]1CCCN1C(=O)[C@H](C)NC(=O)[C@H](CCCNC(=N)N)NC(=O)[C@H](CC(C)C)NC(=O)[C@H](C)NC(=O)[C@@H](NC(=O)[C@H](C)NC(=O)[C@@H](NC(=O)CNC(=O)[C@H](CC(C)C)NC(=O)[C@@H](N)CCCNC(=N)N)[C@@H](C)CC)C(C)C)C(=O)N[C@@H](C)C(=O)N[C@H](C(=O)N[C@@H](C)C(=O)N[C@@H](CC(C)C)C(=O)N[C@@H](C)C(=O)N[C@@H](CCCNC(=N)N)C(=O)O)C(C)C [Peptide P33_3R_4] (H-RLGIAVALRAPALGIAVALAR-OH) | 50.00 |
| CC[C@H](C)[C@H](NC(=O)CNC(=O)[C@H](CC(C)C)NC(=O)[C@H](CCCNC(=N)N)NC(=O)[C@@H]1CCCN1C(=O)[C@H](CCCNC(=N)N)NC(=O)[C@H](CC(C)C)NC(=O)[C@H](C)NC(=O)[C@@H](NC(=O)[C@H](C)NC(=O)[C@@H](NC(=O)CNC(=O)[C@H](CC(C)C)NC(=O)[C@@H](N)CCCNC(=N)N)[C@@H](C)CC)C(C)C)C(=O)N[C@@H](C)C(=O)N[C@H](C(=O)N[C@@H](C)C(=O)N[C@@H](CC(C)C)C(=O)N[C@@H](CCCNC(=N)N)C(=O)O)C(C)C [Peptide P33_4R_1] (H-RLGIAVALRPRLGIAVALR-OH) | 6.25 |
| CC[C@H](C)[C@H](NC(=O)CNC(=O)[C@H](CC(C)C)NC(=O)[C@H](CCCNC(=N)N)NC(=O)[C@@H]1CCCN1C(=O)[C@H](CCCNC(=N)N)NC(=O)[C@H](CCCNC(=N)N)NC(=O)[C@H](CC(C)C)NC(=O)[C@H](C)NC(=O)[C@@H](NC(=O)[C@H](C)NC(=O)[C@@H](NC(=O)CNC(=O)[C@H](CC(C)C)NC(=O)[C@H](C)N)[C@@H](C)CC)C(C)C)C(=O)N[C@@H](C)C(=O)N[C@H](C(=O)N[C@@H](C)C(=O)N[C@@H](CC(C)C)C(=O)N[C@@H](C)C(=O)N[C@@H](CCCNC(=N)N)C(=O)O)C(C)C [Peptide P33_4R_2] (H-ALGIAVALRRPRLGIAVALAR-OH) | 25.00 |
| CC[C@H](C)[C@H](NC(=O)CNC(=O)[C@H](CC(C)C)NC(=O)[C@H](CCCNC(=N)N)NC(=O)[C@@H]1CCCN1C(=O)[C@H](CCCNC(=N)N)NC(=O)[C@H](C)NC(=O)[C@H](CC(C)C)NC(=O)[C@H](C)NC(=O)[C@@H](NC(=O)[C@H](C)NC(=O)[C@@H](NC(=O)CNC(=O)[C@H](CC(C)C)NC(=O)[C@@H](N)CCCNC(=N)N)[C@@H](C)CC)C(C)C)C(=O)N[C@@H](C)C(=O)N[C@H](C(=O)N[C@@H](C)C(=O)N[C@@H](CC(C)C)C(=O)N[C@@H](C)C(=O)N[C@@H](CCCNC(=N)N)C(=O)O)C(C)C [Peptide P33_4R_3] (H-RLGIAVALARPRLGIAVALAR-OH) | 50.00 |
| CC[C@H](C)[C@H](NC(=O)CNC(=O)[C@H](CC(C)C)NC(=O)[C@H](CCCNC(=N)N)NC(=O)[C@@H]1CCCN1C(=O)[C@H](C)NC(=O)[C@H](CCCNC(=N)N)NC(=O)[C@H](CC(C)C)NC(=O)[C@H](C)NC(=O)[C@@H](NC(=O)[C@H](C)NC(=O)[C@@H](NC(=O)CNC(=O)[C@H](CC(C)C)NC(=O)[C@@H](N)CCCNC(=N)N)[C@@H](C)CC)C(C)C)C(=O)N[C@@H](C)C(=O)N[C@H](C(=O)N[C@@H](C)C(=O)N[C@@H](CC(C)C)C(=O)N[C@@H](C)C(=O)N[C@@H](CCCNC(=N)N)C(=O)O)C(C)C [Peptide P33_4R_4] (H-RLGIAVALRAPRLGIAVALAR-OH) | 12.50 |
| CC[C@H](C)[C@H](NC(=O)CNC(=O)[C@H](CC(C)C)NC(=O)[C@H](C)NC(=O)[C@@H]1CCCN1C(=O)[C@H](CCCNC(=N)N)NC(=O)[C@H](CCCNC(=N)N)NC(=O)[C@H](CC(C)C)NC(=O)[C@H](C)NC(=O)[C@@H](NC(=O)[C@H](C)NC(=O)[C@@H](NC(=O)CNC(=O)[C@H](CC(C)C)NC(=O)[C@@H](N)CCCNC(=N)N)[C@@H](C)CC)C(C)C)C(=O)N[C@@H](C)C(=O)N[C@H](C(=O)N[C@@H](C)C(=O)N[C@@H](CC(C)C)C(=O)N[C@@H](C)C(=O)N[C@@H](CCCNC(=N)N)C(=O)O)C(C)C [Peptide P33_4R_5] (H-RLGIAVALRRPALGIAVALAR-OH) | 12.50 |
| CC[C@H](C)[C@H](NC(=O)CNC(=O)[C@H](CC(C)C)NC(=O)[C@H](CCCNC(=N)N)NC(=O)[C@@H]1CCCN1C(=O)[C@H](CCCNC(=N)N)NC(=O)[C@H](CCCNC(=N)N)NC(=O)[C@H](CC(C)C)NC(=O)[C@H](C)NC(=O)[C@@H](NC(=O)[C@H](C)NC(=O)[C@@H](NC(=O)CNC(=O)[C@H](CC(C)C)NC(=O)[C@@H](N)CCCNC(=N)N)[C@@H](C)CC)C(C)C)C(=O)N[C@@H](C)C(=O)N[C@H](C(=O)N[C@@H](C)C(=O)N[C@@H](CC(C)C)C(=O)N[C@@H](C)C(=O)N[C@@H](C)C(=O)O)C(C)C [Peptide P33_4R_6] (H-RLGIAVALRRPRLGIAVALAA-OH) | 12.50 |
| CC(C)C[C@H](NC(=O)CNC(=O)[C@H](CCCNC(=N)N)NC(=O)[C@@H]1CCCN1C(=O)[C@H](CCCNC(=N)N)NC(=O)[C@H](C)NC(=O)[C@@H](NC(=O)[C@H](CC(C)C)NC(=O)[C@H](C)NC(=O)[C@H](CC(C)C)NC(=O)CNC(=O)[C@H](CC(C)C)NC(=O)CNC(=O)[C@@H](N)CCCNC(=N)N)C(C)C)C(=O)NCC(=O)N[C@@H](CC(C)C)C(=O)N[C@@H](C)C(=O)N[C@@H](CC(C)C)C(=O)N[C@H](C(=O)N[C@@H](C)C(=O)N[C@@H](CCCNC(=N)N)C(=O)O)C(C)C [R9A, R20A] (H-RGLGLALVARPRGLGLALVAR-OH) | 50.00 |
| CC(C)C[C@H](NC(=O)CNC(=O)[C@H](CCCNC(=N)N)NC(=O)[C@@H]1CCCN1C(=O)[C@H](CCCNC(=N)N)NC(=O)[C@H](C)NC(=O)[C@@H](NC(=O)[C@H](CC(C)C)NC(=O)[C@H](C)NC(=O)[C@H](CC(C)C)NC(=O)CNC(=O)[C@H](CC(C)C)NC(=O)CNC(=O)[C@@H](N)CCCNC(=N)N)C(C)C)C(=O)NCC(=O)N[C@@H](CC(C)C)C(=O)N[C@@H](C)C(=O)N[C@@H](CC(C)C)C(=O)N[C@H](C(=O)N[C@@H](CCCNC(=N)N)C(=O)N[C@@H](C)C(=O)O)C(C)C [R9A, R21A] (H-RGLGLALVARPRGLGLALVRA-OH) | >100.00 |
